# Results as given in ChEMBL document CHEMBL1147899, “Raman, FT-IR, NMR spectroscopic data and antimicrobial activity of bis[micro2-(benzimidazol-2-yl)-2-ethanethiolato-N,S,S-chloro-palladium(II)] dimer, [(micro2-CH2CH2NHNCC6H4)PdCl]2.C2H5OH complex” (2007).
# How the values were obtained:
# Candida albicans [1] = assay: Antifungal activity against Candida albicans ATCC 10231 after 48 hrs by dilution method; type: functional
# Kluyveromyces marxianus [2] = assay: Antifungal activity against Kluyveromyces fragilis NRRL 2415 after 48 hrs by dilution method; type: functional
# Rhodotorula mucilaginosa [3] = assay: Antifungal activity against Rhodotorula rubra DSM 70403 after 48 hrs by dilution method; type: functional
# [4] = test system: Hanseniaspora guilliermondii; assay: Antifungal activity against Hanseniaspora guilliermondii DSM 3432 after 48 hrs by dilution method; type: functional
# Debaryomyces hansenii [5] = assay: Antifungal activity against Debaryomyces hansenii DSM 70238 after 48 hrs by dilution method; type: functional
# Kluyveromyces marxianus [6] = assay: Antifungal activity against Kluyveromyces fragilis NRRL 2415 at 100 ug after 72 hrs by disk diffusion method; type: functional, organism-based
# Rhodotorula mucilaginosa [7] = assay: Antifungal activity against Rhodotorula rubra DSM 70403 at 100 ug after 72 hrs by disk diffusion method; type: functional, organism-based
# [8] = test system: Hanseniaspora guilliermondii; assay: Antifungal activity against Hanseniaspora guilliermondii DSM 3432 at 100 ug after 72 hrs by disk diffusion method; type: functional, organism-based
# Debaryomyces hansenii [9] = assay: Antifungal activity against Debaryomyces hansenii DSM 70238 at 100 ug after 72 hrs by disk diffusion method; type: functional, organism-based
# Escherichia coli [10] = assay: Antibacterial activity against Escherichia coli ATCC 11230 at 10 ug after 24 hrs by disk diffusion method; type: functional; conditions: ATCC 11230, 24 h, read-out: IZ
# Staphylococcus aureus [11] = assay: Antibacterial activity against Staphylococcus aureus ATCC 6538 at 10 ug after 24 hrs by disk diffusion method; type: functional; conditions: ATCC 6538, 24 h, read-out: IZ
# Klebsiella pneumoniae [12] = assay: Antibacterial activity against Klebsiella pneumoniae UC57 at 10 ug after 24 hrs by disk diffusion method; type: functional; conditions: read-out: IZ
# Pseudomonas aeruginosa [13] = assay: Antibacterial activity against Pseudomonas aeruginosa ATCC 27853 at 10 ug after 24 hrs by disk diffusion method; type: functional; conditions: ATCC 27853, 24 h, read-out: IZ
# Proteus vulgaris [14] = assay: Antibacterial activity against Proteus vulgaris ATCC 8427 at 10 ug after 24 hrs by disk diffusion method; type: functional; conditions: ATCC 8427, 24 h, read-out: IZ
# Bacillus cereus [15] = assay: Antibacterial activity against Bacillus cereus ATCC 7064 at 10 ug after 24 hrs by disk diffusion method; type: functional; conditions: ATCC 7064, 24 h, read-out: IZ
# [16] = test system: Mycolicibacterium smegmatis; assay: Antibacterial activity against Mycobacterium smegmatis CCM 2067 at 10 ug after 24 hrs by disk diffusion method; type: functional; conditions: CCM 2067, 24 h, read-out: IZ
# Listeria monocytogenes [17] = assay: Antibacterial activity against Listeria monocytogenes ATCC 15313 at 10 ug after 24 hrs by disk diffusion method; type: functional; conditions: ATCC 15313, 24 h, read-out: IZ
# Micrococcus luteus [18] = assay: Antibacterial activity against Micrococcus luteus La 2971 at 10 ug by disk diffusion method; type: functional; conditions: read-out: IZ
# Escherichia coli [19] = assay: Antibacterial activity against Escherichia coli ATCC 11230 at 30 ug after 24 hrs by disk diffusion method; type: functional; conditions: ATCC 11230, 24 h, read-out: IZ
# Staphylococcus aureus [20] = assay: Antibacterial activity against Staphylococcus aureus ATCC 6538 at 30 ug after 24 hrs by disk diffusion method; type: functional; conditions: ATCC 6538, 24 h, read-out: IZ
# Klebsiella pneumoniae [21] = assay: Antibacterial activity against Klebsiella pneumoniae UC57 at 30 ug after 24 hrs by disk diffusion method; type: functional; conditions: read-out: IZ
# Proteus vulgaris [22] = assay: Antibacterial activity against Proteus vulgaris ATCC 8427 at 30 ug after 24 hrs by disk diffusion method; type: functional; conditions: ATCC 8427, 24 h, read-out: IZ
# Bacillus cereus [23] = assay: Antibacterial activity against Bacillus cereus ATCC 7064 at 30 ug after 24 hrs by disk diffusion method; type: functional; conditions: ATCC 7064, 24 h, read-out: IZ
# [24] = test system: Mycolicibacterium smegmatis; assay: Antibacterial activity against Mycobacterium smegmatis CCM 2067 at 30 ug after 24 hrs by disk diffusion method; type: functional; conditions: CCM 2067, 24 h, read-out: IZ
# Listeria monocytogenes [25] = assay: Antibacterial activity against Listeria monocytogenes ATCC 15313 at 30 ug after 24 hrs by disk diffusion method; type: functional; conditions: ATCC 15313, 24 h, read-out: IZ
# Micrococcus luteus [26] = assay: Antibacterial activity against Micrococcus luteus La 2971 at 30 ug by disk diffusion method; type: functional; conditions: read-out: IZ
# Rhodotorula mucilaginosa [27] = assay: Antifungal activity against Rhodotorula rubra DSM 70403 after 72 hrs by disk diffusion method; type: functional
# Micrococcus luteus [28] = assay: Antibacterial activity against Micrococcus luteus La 2971 after 24 hrs by disk diffusion method; type: functional
# Candida albicans [29] = assay: Antifungal activity against Candida albicans ATCC 10231 after 72 hrs by disk diffusion method; type: functional
# Kluyveromyces marxianus [30] = assay: Antifungal activity against Kluyveromyces fragilis NRRL 2415 after 72 hrs by disk diffusion method; type: functional
# [31] = test system: Hanseniaspora guilliermondii; assay: Antifungal activity against Hanseniaspora guilliermondii DSM 3432 after 72 hrs by disk diffusion method; type: functional
# Debaryomyces hansenii [32] = assay: Antifungal activity against Debaryomyces hansenii DSM 70238 after 72 hrs by disk diffusion method; type: functional
# Escherichia coli [33] = assay: Antibacterial activity against Escherichia coli ATCC 11230 after 24 hrs by dilution method; type: functional; conditions: ATCC 11230, 24 h
# Staphylococcus aureus [34] = assay: Antibacterial activity against Staphylococcus aureus ATCC 6538 after 24 hrs by dilution method; type: functional; conditions: ATCC 6538, 24 h
# Klebsiella pneumoniae [35] = assay: Antibacterial activity against Klebsiella pneumoniae UC57 after 24 hrs by dilution method; type: functional
# Escherichia coli [36] = assay: Antibacterial activity against Escherichia coli ATCC 11230 after 24 hrs by disk diffusion method; type: functional
# Staphylococcus aureus [37] = assay: Antibacterial activity against Staphylococcus aureus ATCC 6538 after 24 hrs by disk diffusion method; type: functional
# Klebsiella pneumoniae [38] = assay: Antibacterial activity against Klebsiella pneumoniae UC57 after 24 hrs by disk diffusion method; type: functional
# Pseudomonas aeruginosa [39] = assay: Antibacterial activity against Pseudomonas aeruginosa ATCC 27853 after 24 hrs by disk diffusion method; type: functional
# Proteus vulgaris [40] = assay: Antibacterial activity against Proteus vulgaris ATCC 8427 after 24 hrs by disk diffusion method; type: functional
# Bacillus cereus [41] = assay: Antibacterial activity against Bacillus cereus ATCC 7064 after 24 hrs by disk diffusion method; type: functional
# [42] = test system: Mycolicibacterium smegmatis; assay: Antibacterial activity against Mycobacterium smegmatis CCM 2067 after 24 hrs by disk diffusion method; type: functional
# Listeria monocytogenes [43] = assay: Antibacterial activity against Listeria monocytogenes ATCC 15313 after 24 hrs by disk diffusion method; type: functional
# Pseudomonas aeruginosa [44] = assay: Antibacterial activity against Pseudomonas aeruginosa ATCC 27853 after 24 hrs by dilution method; type: functional; conditions: ATCC 27853, 24 h
# Proteus vulgaris [45] = assay: Antibacterial activity against Proteus vulgaris ATCC 8427 by after 24 hrs dilution method; type: functional; conditions: ATCC 8427, 24 h
# Bacillus cereus [46] = assay: Antibacterial activity against Bacillus cereus ATCC 7064 after 24 hrs by dilution method; type: functional; conditions: ATCC 7064, 24 h
# [47] = test system: Mycolicibacterium smegmatis; assay: Antibacterial activity against Mycobacterium smegmatis CCM 2067 after 24 hrs by dilution method; type: functional; conditions: CCM 2067, 24 h
# Listeria monocytogenes [48] = assay: Antibacterial activity against Listeria monocytogenes ATCC 15313 after 24 hrs by dilution method; type: functional; conditions: ATCC 15313, 24 h
# Micrococcus luteus [49] = assay: Antibacterial activity against Micrococcus luteus La 2971 after 24 hrs by dilution method; type: functional
# Pseudomonas aeruginosa [50] = assay: Antibacterial activity against Pseudomonas aeruginosa ATCC 27853 at 30 ug after 24 hrs by disk diffusion method; type: functional; conditions: ATCC 27853, 24 h, read-out: IZ
compound,measurement,setting,value
NYSTATIN,MIC,Candida albicans [1],3.12 µg/mL
same,MIC,Kluyveromyces marxianus [2],6.25 µg/mL
same,MIC,Rhodotorula mucilaginosa [3],6.25 µg/mL
same,MIC,[4],3.12 µg/mL
same,MIC,Debaryomyces hansenii [5],12.5 µg/mL
same,inhibition zone (IZ),Kluyveromyces marxianus [6],18 mm
same,inhibition zone (IZ),Rhodotorula mucilaginosa [7],18 mm
same,inhibition zone (IZ),[8],21 mm
same,inhibition zone (IZ),Debaryomyces hansenii [9],16 mm
CC1(C)S[C@@H]2[C@H](NC(=O)[C@H](N)c3ccccc3)C(=O)N2[C@H]1C(=O)O [AMPICILLIN],zone of inhibition at 10 µg/disc,Escherichia coli [10],12 mm
same,zone of inhibition at 10 µg/disc,Staphylococcus aureus [11],16 mm
same,zone of inhibition at 10 µg/disc,Klebsiella pneumoniae [12],14 mm
same,zone of inhibition at 10 µg/disc,Pseudomonas aeruginosa [13],10 mm
same,zone of inhibition at 10 µg/disc,Proteus vulgaris [14],16 mm
same,zone of inhibition at 10 µg/disc,Bacillus cereus [15],12 mm
same,zone of inhibition at 10 µg/disc,[16],21 mm
same,zone of inhibition at 10 µg/disc,Listeria monocytogenes [17],12 mm
same,zone of inhibition at 10 µg/disc,Micrococcus luteus [18],32 mm
CO/N=C(\C(=O)N[C@@H]1C(=O)N2C(C(=O)O)=C(COC(C)=O)CS[C@H]12)c1csc(N)n1 [CEFOTAXIME],zone of inhibition at 30 µg/disc,Escherichia coli [19],10 mm
same,zone of inhibition at 30 µg/disc,Staphylococcus aureus [20],12 mm
same,zone of inhibition at 30 µg/disc,Klebsiella pneumoniae [21],13 mm
same,zone of inhibition at 30 µg/disc,Proteus vulgaris [22],18 mm
same,zone of inhibition at 30 µg/disc,Bacillus cereus [23],14 mm
same,zone of inhibition at 30 µg/disc,[24],11 mm
same,zone of inhibition at 30 µg/disc,Listeria monocytogenes [25],16 mm
same,zone of inhibition at 30 µg/disc,Micrococcus luteus [26],32 mm
Cl.c1ccc2[nH]c(CCSSCCc3nc4ccccc4[nH]3)nc2c1,inhibition zone (IZ),Rhodotorula mucilaginosa [27],15 mm
same,inhibition zone (IZ),Micrococcus luteus [28],14 mm
same,inhibition zone (IZ),Candida albicans [29],17 mm
same,inhibition zone (IZ),Kluyveromyces marxianus [30],18 mm
same,inhibition zone (IZ),[31],16 mm
same,inhibition zone (IZ),Debaryomyces hansenii [32],14 mm
same,MIC,Escherichia coli [33],12.5 µg/mL
same,MIC,Staphylococcus aureus [34],12.5 µg/mL
same,MIC,Klebsiella pneumoniae [35],25 µg/mL
same,inhibition zone (IZ),Escherichia coli [36],14 mm
same,inhibition zone (IZ),Staphylococcus aureus [37],16 mm
same,inhibition zone (IZ),Klebsiella pneumoniae [38],12 mm
same,inhibition zone (IZ),Pseudomonas aeruginosa [39],12 mm
same,inhibition zone (IZ),Proteus vulgaris [40],16 mm
same,inhibition zone (IZ),Bacillus cereus [41],12 mm
same,inhibition zone (IZ),[42],16 mm
same,inhibition zone (IZ),Listeria monocytogenes [43],12 mm
same,MIC,Pseudomonas aeruginosa [44],25 µg/mL
same,MIC,Proteus vulgaris [45],6.25 µg/mL
same,MIC,Bacillus cereus [46],50 µg/mL
same,MIC,[47],6.25 µg/mL
same,MIC,Listeria monocytogenes [48],12.5 µg/mL
same,MIC,Micrococcus luteus [49],12.5 µg/mL
same,MIC,"Candida albicans [1]; ATCC 10231, 48 h",6.25 µg/mL
same,MIC,"Kluyveromyces marxianus [2]; NRRL 2415, 48 h",3.12 µg/mL
same,MIC,"Rhodotorula mucilaginosa [3]; DSM 70403, 48 h",12.5 µg/mL
same,MIC,"[4]; DSM 3432, 48 h",6.25 µg/mL
same,MIC,"Debaryomyces hansenii [5]; DSM 70238, 48 h",12.5 µg/mL
CN[C@H](CC(C)C)C(=O)N[C@H]1C(=O)N[C@@H](CC(N)=O)C(=O)N[C@H]2C(=O)N[C@H]3C(=O)N[C@H](C(=O)N[C@H](C(=O)O)c4cc(O)cc(O)c4-c4cc3ccc4O)[C@H](O)c3ccc(c(Cl)c3)Oc3cc2cc(c3O[C@@H]2O[C@H](CO)[C@@H](O)[C@H](O)[C@H]2O[C@H]2C[C@](C)(N)[C@H](O)[C@H](C)O2)Oc2ccc(cc2Cl)[C@H]1O [VANCOMYCIN],zone of inhibition at 30 µg/disc,Escherichia coli [19],22 mm
same,zone of inhibition at 30 µg/disc,Staphylococcus aureus [20],13 mm
same,zone of inhibition at 30 µg/disc,Klebsiella pneumoniae [21],22 mm
same,zone of inhibition at 30 µg/disc,Pseudomonas aeruginosa [50],10 mm
same,zone of inhibition at 30 µg/disc,Proteus vulgaris [22],20 mm
same,zone of inhibition at 30 µg/disc,Bacillus cereus [23],18 mm
same,zone of inhibition at 30 µg/disc,[24],20 mm
same,zone of inhibition at 30 µg/disc,Listeria monocytogenes [25],26 mm
same,zone of inhibition at 30 µg/disc,Micrococcus luteus [26],34 mm
